1 compound from patent US20160199365A1, “2-Carboxamide Cycloamino Urea Derivatives in Combination with HSP90 Inhibitors for the Treatment of Proliferative Diseases” (Novartis AG, priority 2011, published 2016) can be followed below.

Series [1] deals with KYSE-70 tumors (esophageal squamous cell carcinoma cells). In words: KYSE-70 esophageal squamous cell carcinoma xenograft model (Example 4). The format is in vivo, mice. The conditions noted are these: Group 4: 50 mg/kg AUY922 intravenous twice a week. Here is the method:
KYSE-70 tumors are established by injecting 7.5×10^6 KYSE-70 cells, which are esophageal squamous cell carcinoma cells, in 100 μl cell suspension, with a 23 gauge needle subcutaneously on the right flank of the mice. Ten (10) days after implantation, […]. When tumors are established and reach about 156 mm^3 (minimum 86 mm^3, maximum 218 mm^3) approximately 10 days after implantation, 48 animals are selected and randomized into 6 treatment groups (n=8). Placebo control is formulated as 10 ml/kg of 250 μl NMP, 750 μl PEG300, 500 μl Solutol HS15, and 1000 μl water for delivery once daily per oral (Placebo 1) and as 10 ml/kg of 2.5 ml Glucose for delivery intravenously twice a week (Placebo 2). Compound A is formulated in NMP/PEG300/Solutol HS15/water (10:30:20:40% vol/vol). The compound is fully dissolved in NMP first and water is added immediately prior to administration to animals. […] All doses of AUY922 refer to the free base equivalent. AUY922 is administered iv at a volume of 10 ml/kg, twice a week.

Series [2] relates to HGC-27 subcutaneous xenografts. Put plainly: HGC-27 gastric cancer xenograft model, treatment from day 20 for 14 days (Example 2). The series is classed as in vivo, mice. Particulars: AUY922 50 mg/kg 2q.w. i.v. An excerpt: The procedure described in Example 1 is followed with the following modifications: Treatments are initiated on day 20 following tumor cell implantation of 5 million HCG-27 cells, when the average tumor volume is 316 mm^3 (164-485 mm^3).

For series [3], the system named is HGC-27 subcutaneous xenografts (human gastric carcinoma cells, PIK3CA mutation, PTEN null). Put plainly: HGC-27 gastric cancer xenograft model in female athymic nude mice (Example 1).
Method: Experiments are performed in female Hsd:Athymic Nude-FoxN1^nu Nude mice approximately 8-12 weeks of age at treatment start.
HGC-27 cells, which are human gastric carcinoma cells with a PIK3CA mutation (c1624G>A, p.E542K) and PTEN null, are grown in MEM culture medium containing 1% non-essential amino acid with 10% heat-inactivated FCS, and are incubated at 37° C. in a 5% CO2 humidified atmosphere.
HGC-27 tumors are established in vivo by injection 5×10^6 cells in 200 μl (100 μl PBS+100 μl Matrigel) (Cat #354234, BD Bioscience, Bedford, Mass.) subcutaneous into the right flank of the animals. The efficacy experiments are started when the tumors reach an average size of approximately 230 mm^3 (day 12 post cell injection).
Compound A is formulated in 0.5% Methylcellulose (MC). 80 mg of Compound A is added to 16 ml of 0.5% MC, then stirred/vortexed and sonicated in water bath sonicator for 1 h to obtain 5 mg/ml homogeneous suspension. 0.5% MC is used to dilute the 5 mg/ml solution to 2.5 mg/ml and 1.25 mg/ml for dosing. Compound A or vehicle is administered orally at a volume of 10 ml/kg.
Tumor volumes are measured with calipers and determined according to the formula: length×diameter^2×π/6. Antitumor activity is expressed as T/C % which is determined according to the formula: (mean change of tumor volume of treated animals/mean change of tumor volume of control animals)×100. Regressions (%) are calculated according to the formula ((mean tumor volume at end of treatment-mean tumor volume at start of treatment)/mean tumor volume at start of treatment)×100. Body weights and tumor volumes are recorded twice a week.
Where applicable, data is presented as mean±SEM. For all tests, the level of significance is set at p<0.05. For tumor volumes, comparisons between treatment groups and vehicle control group are done using one-way ANOVA followed by Dunnett's test. Tumor volumes comparisons between treatment groups are done using Kruskal-Wallis one way ANOVA post-hoc Student Newman Kuels test or Dunn's test. In the first experiment, Compound A is orally administered daily to HGC-27 subcutaneous xenografts, tumor-bearing nude mice at a dose of 12.5 mg/kg, 25 mg/kg and 50 mg/kg.
Series [4] concerns NCI-N87 tumors (human gastric carcinoma cells). Put plainly: NCI-N87 gastric cancer xenograft model, third experiment (Example 3). The series is classed as in vivo, mice. Particulars: AUY922 50 mg/kg, single agent. On the procedure: Cells are harvested with trypsin (0.25% w/v)-EDTA (0.53 mM), are re-suspended in culture medium (with additives) and are counted with a Casy® system. Cell culture reagents are purchased from BioConcept (Allschwil, Switzerland). NCI-N87 tumors are established by injecting […] to 1×10^7 cells (in HBSS containing 50% v/v Matrigel) subcutaneously with a 23 Gauge needle. When tumors are established and reach between 180 and 210 mm^3, animals are randomized into treatment groups and the treatments are initiated. Compound A is formulated in NMP/PEG300/Solutol HS15/water (10:30:20:40% vol/vol) The compound is fully dissolved in NMP first and water is added immediately prior to administration to animals. […] All doses of AUY922 refer to the free base equivalent. AUY922 is administered iv at a volume of 10 ml/kg, twice a week. […] Pairwise comparisons are done using a one way ANOVA followed by Tukey's test. The level of significance of body weight change within a group between start and end of the treatment period is determined using a paired t-test. […] Calculations are performed using GraphPad Prism 4 for windows (GraphPad Software Inc.). In addition, an approximation of drug interactions is made using the method described by Clarke R., “Issues in experimental design and endpoint analysis in the study of experimental cytotoxic agents in vivo in breast cancer and other models”, Breast Cancer Res. Treat, 46, 255-78 (1997). This is applied to MV (Tumor volume). In the third efficacy experiment, the tumor model is set up as in the second experiment.

The test system is the same in series [5]. Put plainly: NCI-N87 gastric cancer xenograft model, second experiment (Example 3). The format is in vivo, mice. Particulars: single agent. On the procedure: Cells are harvested with trypsin (0.25% w/v)-EDTA (0.53 mM), are re-suspended in culture medium (with additives) and are counted with a Casy® system. Cell culture reagents are purchased from BioConcept (Allschwil, Switzerland). NCI-N87 tumors are established by injecting […] to 1×10^7 cells (in HBSS containing 50% v/v Matrigel) subcutaneously with a 23 Gauge needle. When tumors are established and reach between 180 and 210 mm^3, animals are randomized into treatment groups and the treatments are initiated. Compound A is formulated in NMP/PEG300/Solutol HS15/water (10:30:20:40% vol/vol) The compound is fully dissolved in NMP first and water is added immediately prior to administration to animals. […] All doses of AUY922 refer to the free base equivalent. AUY922 is administered iv at a volume of 10 ml/kg, twice a week. […] Pairwise comparisons are done using a one way ANOVA followed by Tukey's test. The level of significance of body weight change within a group between start and end of the treatment period is determined using a paired t-test. […] Calculations are performed using GraphPad Prism 4 for windows (GraphPad Software Inc.). In addition, an approximation of drug interactions is made using the method described by Clarke R., “Issues in experimental design and endpoint analysis in the study of experimental cytotoxic agents in vivo in breast cancer and other models”, Breast Cancer Res. Treat, 46, 255-78 (1997). This is applied to MV (Tumor volume).

The test system is the same in series [6]. Put plainly: NCI-N87 gastric cancer xenograft model, first experiment (Example 3). The series is classed as in vivo, mice. Here is the method:
Cells are harvested with trypsin (0.25% w/v)-EDTA (0.53 mM), are re-suspended in culture medium (with additives) and are counted with a Casy® system. Cell culture reagents are purchased from BioConcept (Allschwil, Switzerland). NCI-N87 tumors are established by injecting […] to 1×10^7 cells (in HBSS containing 50% v/v Matrigel) subcutaneously with a 23 Gauge needle. When tumors are established and reach between 180 and 210 mm^3, animals are randomized into treatment groups and the treatments are initiated. Compound A is formulated in NMP/PEG300/Solutol HS15/water (10:30:20:40% vol/vol) The compound is fully dissolved in NMP first and water is added immediately prior to administration to animals. […] All doses of AUY922 refer to the free base equivalent. AUY922 is administered iv at a volume of 10 ml/kg, twice a week. […] Pairwise comparisons are done using a one way ANOVA followed by Tukey's test. The level of significance of body weight change within a group between start and end of the treatment period is determined using a paired t-test. […] Calculations are performed using GraphPad Prism 4 for windows (GraphPad Software Inc.). In addition, an approximation of drug interactions is made using the method described by Clarke R., “Issues in experimental design and endpoint analysis in the study of experimental cytotoxic agents in vivo in breast cancer and other models”, Breast Cancer Res. Treat, 46, 255-78 (1997). This is applied to MV (Tumor volume). Female athymic nude mice are treated orally once a day with 50 mg/kg Compound A, alone or in combination with 50 mg/kg of AUY922 administered intravenously twice a week. […] For compound A, B or the combination AB (with Vehicle Control group C), antagonism is predicted when the calculation AB/C>A/C×B/C, additive effect: AB/C=A/C×B/C, synergistic interactions are predicted to occur when AB/C<[…].

For orientation: T/C means the result in the treated group divided by that in the control group, in per cent. Turning to `CCNC(=O)c1noc(-c2cc(C(C)C)c(O)cc2O)c1-c1ccc(CN2CCOCC2)cc1` [AUY922, 5-(2,4-Dihydroxy-5-isopropyl-phenyl)-4-(4-morpholin-4-ylmethyl-phenyl)-isoxazole-3-carboxylic acid ethylamide, reference compound], the “T/C [%] Day 10” value in series [1] (Day 10) is recorded as 100.0%. In addition, the “T/C [%] Day 14” value in series [1] (Day 14) is 145.3%. The “T/C [%] Day 17” value in series [1] (Day 17) was 144.4%. Further, the “T/C [%] Day 21” value in series [1] (Day 21) was 131.8%. The “T/C [%] Day 24” value in series [1] (Day 24) was found to be 141.1%. The results for the T/C in series [2], in series [4] and in series [5] (AUY922 50 mg/kg i.v. twice per week) were 57%, 14% and 4.7%, respectively. For the same compound, the “T/C %” value in series [3] (AUY922 50 mg/kg free base i.v. twice a week) came out at 60.5%. Moreover, the body weight change in series [3] (AUY922 50 mg/kg i.v. twice a week) stood at 6.6±2.6%. The “mean change of tumor volume” value in series [3] (AUY922 50 mg/kg i.v. twice a week, mean±SEM) is given as 792.2±159 mm^3; in series [4] (±SEM) it was 27.4±10.2 mm^3; in series [5] (AUY922 50 mg/kg, ±SEM) it was 17.9±11.0 mm^3; in series [6] (AUY922 50 mg/kg i.v. twice a week, single agent, ±SEM), −15.1±21.4 mm^3. Also, the tumor regressions in series [6] (AUY922 50 mg/kg i.v. twice a week, single agent) came to 7%. Moreover, in series [6] (AUY922 50 mg/kg i.v. twice a week, change of tumor volume (mm^3)), the “ΔTV AUY922 (B)” value is −15.1. The B/C in series [6] (ΔTV of AUY922 over vehicle control, Clarke method) is listed as −0.061.
